Assay results published in article PMC10452110, “Indole-3-Acetamido-Polyamines as Antimicrobial Agents and Antibiotic Adjuvants” (Biomolecules, 2023).

Key:
[1] = tested on: Escherichia coli (ATCC 25922); test: Intrinsic antimicrobial activity (MIC) against E. coli; type: cell-based; details: ATCC25922, E. coli ATCC 25922, mean (n = 3), read-out: MIC E. c
Description: (§1) The susceptibility of bacterial strains Staphylococcus aureus (ATCC 25923), Escherichia coli (ATCC 25922) and Pseudomonas aeruginosa (ATCC 27853) to antibiotics and compounds was determined using previously reported protocols. Additional antimicrobial evaluation against MRSA (ATCC 43300), Klebsiella pneumoniae (ATCC 700603), Acinetobacter baumannii (ATCC 19606), Candida albicans (ATCC 90028) and Cryptococcus neoformans (ATCC 208821) was undertaken at the Community for Open Antimicrobial Drug Discovery at The University of Queensland (Australia) according to their standard protocols, as reported previously.

[2] = tested on: Candida albicans (ATCC 90028); test: Intrinsic antifungal activity (MIC) against C. albicans; type: cell-based; details: ATCC90028, C. albicans ATCC 90028, mean (n = 2), read-out: MIC C. a
Description: as §1

human red blood cells = test: Hemolytic assay; type: cell-based; details: mean (n = 2)
Description: Hemolysis assays were conducted using the protocols previously reported.

MRSA (ATCC 43300) = test: Intrinsic antimicrobial activity (MIC) against MRSA; type: cell-based; details: Staphylococcus aureus, MRSA ATCC 43300; mean (n = 2); read-out: MIC MRSA
Description: as §1

[3] = tested on: Staphylococcus aureus (ATCC 25923); test: Intrinsic antimicrobial activity (MIC) against S. aureus; type: cell-based; details: ATCC25923, S. aureus ATCC 25923, mean (n = 3), read-out: MIC S. a
Description: as §1

P. aeruginosa ATCC 27853 = test: Enhancement of doxycycline action against P. aeruginosa; type: cell-based, Pseudomonas aeruginosa; details: doxycycline at 4.5 µM
Description: (§2) Antibiotic enhancer concentrations were determined using previously reported protocols.

E. coli ATCC 25922 = test: Enhancement of erythromycin action against E. coli; type: cell-based, Escherichia coli; details: erythromycin at 10.9 µM
Description: as §2

Cytotoxicity assay = type: cell-based; details: human; HEK293 cells; mean (n = 2); read-out: Cytotoxicity: concentration of compound at 50% cytotoxicity (IC50)
Description: Cytotoxicity assays were conducted using the protocols previously reported.

[4] = tested on: Pseudomonas aeruginosa (ATCC 27853); test: Intrinsic antimicrobial activity (MIC) against P. aeruginosa; type: cell-based; details: ATCC27853, P. aeruginosa ATCC 27853, mean (n = 3), read-out: MIC P. a
Description: as §1

[5] = tested on: Acinetobacter baumannii (ATCC 19606); test: Intrinsic antimicrobial activity (MIC) against A. baumannii; type: cell-based; details: ATCC19606, A. baumannii ATCC 19606, mean (n = 2), read-out: MIC A. b
Description: as §1

[6] = tested on: Cryptococcus neoformans (ATCC 208821); test: Intrinsic antifungal activity (MIC) against C. neoformans; type: cell-based; details: ATCC208821, C. neoformans ATCC 208821, mean (n = 2), read-out: MIC C. n
Description: as §1

[7] = tested on: Klebsiella pneumoniae (ATCC 700603); test: Intrinsic antimicrobial activity (MIC) against K. pneumoniae; type: cell-based; details: ATCC700603, K. pneumoniae ATCC 700603, mean (n = 2), read-out: MIC K. p
Description: as §1

| Compound | MIC [1] | MIC [2] | Hemolysis: concentration of compound at 10% hemolytic activity (HC10) (human red blood cells) | MIC (MRSA (ATCC 43300)) | MIC [3] | Dox/P. a fold change (ratio between intrinsic MIC of the test compound and combination MIC) (P. aeruginosa ATCC 27853) | Dox/P. a: concentration required to restore doxycycline activity (combination MIC) (P. aeruginosa ATCC 27853) | Eryth/E. c: concentration required to restore erythromycin activity (combination MIC) (E. coli ATCC 25922) | IC50 (Cytotoxicity assay) | MIC [4] | MIC [5] | MIC [6] | MIC [7] |
| --- | --- | --- | --- | --- | --- | --- | --- | --- | --- | --- | --- | --- | --- |
| O=C(Cc1c[nH]c2ccccc12)NCCCNCCCCCCCNCCCNC(=O)Cc1c[nH]c2ccccc12.O=C(O)C(F)(F)F.O=C(O)C(F)(F)F [Compound 14c, N^1,N^7-Bis(3-(2-(1H-indol-3-yl)acetamido)propyl)heptane-1,7-diaminium 2,2,2-trifluoroacetate] | > 254 µM | > 41 µM | 0.72 µM | ≤ 0.32 µM | 15.9 µM | 4 fold | 63.5 µM | > 254 µM | > 41 µM | > 254 µM | > 41 µM | ≤ 0.32 µM | > 41 µM |
| O=C(Cc1c[nH]c2c(F)cccc12)NCCCNCCCCCCCCCCCCNCCCNC(=O)Cc1c[nH]c2c(F)cccc12.O=C(O)C(F)(F)F.O=C(O)C(F)(F)F [Compound 18f, N^1,N^12-Bis(3-(2-(7-fluoro-1H-indol-3-yl)acetamido)propyl)dodecane-1,12-diaminium 2,2,2-trifluoroacetate] | 28 µM | ≤ 0.28 µM | ≤0.28 µM | ≤ 0.28 µM | 7 µM | 1 fold | 224 µM | 14.0 µM | 27.2 µM | 224 µM |  | ≤ 0.28 µM |  |
| COc1cccc2c(CC(=O)NCCCNCCCCNCCCNC(=O)Cc3c[nH]c4c(OC)cccc34)c[nH]c12.O=C(O)C(F)(F)F.O=C(O)C(F)(F)F [Compound 19a, N^1,N^4-Bis(3-(2-(7-methoxy-1H-indol-3-yl)acetamido)propyl)butane-1,4-diaminium 2,2,2-trifluoroacetate] | > 249 µM | > 40 µM | >40 µM | 19.9 µM | 124 µM | 1 fold | > 249 µM | > 249 µM | > 40 µM | > 249 µM |  | 19.9 µM |  |
| COc1cccc2c(CC(=O)NCCCNCCCCCCCCNCCCNC(=O)Cc3c[nH]c4c(OC)cccc34)c[nH]c12.O=C(O)C(F)(F)F.O=C(O)C(F)(F)F [Compound 19d, N^1,N^8-Bis(3-(2-(7-methoxy-1H-indol-3-yl)acetamido)propyl)octane-1,8-diaminium 2,2,2-trifluoroacetate] | > 232 µM | > 37 µM | >37 µM | 37.2 µM | 116 µM | 1 fold | > 232 µM | > 232 µM | > 37 µM | > 232 µM |  | ≤ 0.29 µM |  |
| COc1cccc2c(CC(=O)NCCCNCCCCCCCCCCCCNCCCNC(=O)Cc3c[nH]c4c(OC)cccc34)c[nH]c12.O=C(O)C(F)(F)F.O=C(O)C(F)(F)F [Compound 19f, N^1,N^12-Bis(3-(2-(7-methoxy-1H-indol-3-yl)acetamido)propyl)dodecane-1,12-diaminium 2,2,2-trifluoroacetate] | 109 µM | 34.9 µM | 10.7 µM | ≤ 0.27 µM | 13.6 µM | > 1 fold | 218 µM | 109 µM | > 35 µM | > 218 µM |  | ≤ 0.27 µM |  |
| Cc1cccc2c(CC(=O)NCCCNCCCCNCCCNC(=O)Cc3c[nH]c4c(C)cccc34)c[nH]c12.O=C(O)C(F)(F)F.O=C(O)C(F)(F)F [Compound 20a, N^1,N^4-Bis(3-(2-(7-methyl-1H-indol-3-yl)acetamido)propyl)butane-1,4-diaminium 2,2,2-trifluoroacetate] | 259 µM | 41.4 µM | 4.11 µM | ≤ 0.32 µM | 32.3 µM | 1 fold | > 259 µM | 64.7 µM | > 41 µM | > 259 µM |  | ≤ 0.32 µM |  |
| Cc1cccc2c(CC(=O)NCCCNCCCCCCNCCCNC(=O)Cc3c[nH]c4c(C)cccc34)c[nH]c12.O=C(O)C(F)(F)F.O=C(O)C(F)(F)F [Compound 20b, N^1,N^6-Bis(3-(2-(7-methyl-1H-indol-3-yl)acetamido)propyl)hexane-1,6-diaminium 2,2,2-trifluoroacetate] | 250 µM | 40 µM | 9.24 µM | ≤ 0.31 µM | 62.4 µM | > 1 fold | 250 µM | 62.4 µM | > 40 µM | > 250 µM |  | ≤ 0.31 µM |  |
| Cc1cccc2c(CC(=O)NCCCNCCCCCCCNCCCNC(=O)Cc3c[nH]c4c(C)cccc34)c[nH]c12.O=C(O)C(F)(F)F.O=C(O)C(F)(F)F [Compound 20c, N^1,N^7-Bis(3-(2-(7-methyl-1H-indol-3-yl)acetamido)propyl)heptane-1,7-diaminium 2,2,2-trifluoroacetate] | 245 µM | > 39 µM |  | < 0.2 µM | 3.83 µM | > 2 fold | 123 µM | 123 µM | > 39 µM | > 245 µM | > 39 µM | < 0.2 µM | > 39 µM |
| Cc1cccc2c(CC(=O)NCCCNCCCCCCCCCCNCCCNC(=O)Cc3c[nH]c4c(C)cccc34)c[nH]c12.O=C(O)C(F)(F)F.O=C(O)C(F)(F)F [Compound 20e, N^1,N^10-Bis(3-(2-(7-methyl-1H-indol-3-yl)acetamido)propyl)decane-1,10-diaminium 2,2,2-trifluoroacetate] | > 233 µM | 18.7 µM | 12.7 µM | ≤ 0.29 µM | 233 µM | 1 fold | > 233 µM | > 233 µM | > 37 µM | > 233 µM |  | ≤ 0.29 µM |  |
| Cc1cccc2c(CC(=O)NCCCNCCCCCCCCCCCCNCCCNC(=O)Cc3c[nH]c4c(C)cccc34)c[nH]c12.O=C(O)C(F)(F)F.O=C(O)C(F)(F)F [Compound 20f, N^1,N^12-Bis(3-(2-(7-methyl-1H-indol-3-yl)acetamido)propyl)dodecane-1,12-diaminium 2,2,2-trifluoroacetate] | 56.5 µM | ≤ 0.28 µM | ≤0.28 µM | ≤ 0.28 µM | 28.2 µM | 1 fold | > 226 µM | 28.2 µM | > 36 µM | > 226 µM |  | ≤ 0.28 µM |  |
